Data on 18 compounds can be found in patent publication US20100003250A1, “(2-ARYL-7H-PYRROLO[2,3-D]PYRIMIDIN-4-YL)MORPHOLINE COMPOUNDS, THEIR USE AS MTOR KINASE AND PI3 KINASE INHIBITORS, AND THEIR SYNTHESES” (Wyeth, priority 2008, published 2010).

Usually IC50 stands for the concentration that inhibits the measured activity by half.

Type in all cases: biochemical
Test [1] deals with PI3Kα (Homo sapiens, UniProt P42336). In words: PI3K-alpha fluorescence polarization assay. The conditions noted are these: 20 μM PIP2, 25 μM ATP; read-out: PI3Kα Median IC50. (In general: In fluorescence polarisation assays a small probe gives low polarisation when free and higher when bound to something large.)
For test [2], the target named is PI3Kγ (Homo sapiens, UniProt P48736). The experiment in a line: PI3K-gamma fluorescence polarization assay. The conditions noted are these: 20 μM PIP2, 25 μM ATP; read-out: PI3Kγ Median IC50. As for the experimental part: PI3K-alpha and PI3K-gamma Fluorescence Polarization Assay Protocols
The reaction buffer was 20 mM HEPES pH 7.5, 2 mM MgCl2, 0.05% CHAPS, and 0.01% βME (added fresh). The substrate solution was 40 μM PIP2 (diC8, Echelon, Salt Lake City Utah cat # P-4508, 1 mM in water) and 50 μM ATP in the reaction buffer. Nunc 384-well black polypropylene fluorescent plates were used for PI3K assays. The assay is run by putting 9.5 μl of freshly diluted enzyme in the reaction buffer per well, adding 0.5 μl of diluted drug or DMSO, and mixing. Then 10 μl of the substrate solution is added to each well to start the reaction. A final concentration of 20 μM PIP2 and 25 μM ATP in the reaction was used. Reactions were allowed to proceed for 30-60 minutes at room temperature. After 30-60 minutes, 20 μl of a solution of 10 nM TAMRA detector (Red detector probe-Echelon) and 2.5 μM of GST-murineGRP (1.5 mg/ml in 17% glycerol) was added per well to stop the reaction. The resulting solution was mixed well and allowed to stand for 90-110 minutes before reading plate. Assay Plates were read on Perkin-Elmer Envision plate readers with appropriate filters for Tamra [BODIPY-TMRI(1,3,4,5)P4]. Data obtained were used to calculate enzymatic activity and enzyme inhibition by inhibitor compounds. It is important to keep Red probe solutions dark. This procedure is adapted from Echelon Biosciences Inc procedure for their PI3-Kinase fluorescence polarization activity Assay kit Product number K-1100.

The target in test [3] is T1, mTOR Kinase (FLAG-TOR) (Homo sapiens, UniProt P42345).
T1 construct: FLAG
The experiment in a line: mTOR kinase assay, purified enzyme, DELFIA format. The conditions noted are these: 100 μM ATP, 1.25 μM His6-S6K; read-out: mTOR Kinase Median IC50.

PI3Kγ, sequence (P48736 whole entry, species assumed): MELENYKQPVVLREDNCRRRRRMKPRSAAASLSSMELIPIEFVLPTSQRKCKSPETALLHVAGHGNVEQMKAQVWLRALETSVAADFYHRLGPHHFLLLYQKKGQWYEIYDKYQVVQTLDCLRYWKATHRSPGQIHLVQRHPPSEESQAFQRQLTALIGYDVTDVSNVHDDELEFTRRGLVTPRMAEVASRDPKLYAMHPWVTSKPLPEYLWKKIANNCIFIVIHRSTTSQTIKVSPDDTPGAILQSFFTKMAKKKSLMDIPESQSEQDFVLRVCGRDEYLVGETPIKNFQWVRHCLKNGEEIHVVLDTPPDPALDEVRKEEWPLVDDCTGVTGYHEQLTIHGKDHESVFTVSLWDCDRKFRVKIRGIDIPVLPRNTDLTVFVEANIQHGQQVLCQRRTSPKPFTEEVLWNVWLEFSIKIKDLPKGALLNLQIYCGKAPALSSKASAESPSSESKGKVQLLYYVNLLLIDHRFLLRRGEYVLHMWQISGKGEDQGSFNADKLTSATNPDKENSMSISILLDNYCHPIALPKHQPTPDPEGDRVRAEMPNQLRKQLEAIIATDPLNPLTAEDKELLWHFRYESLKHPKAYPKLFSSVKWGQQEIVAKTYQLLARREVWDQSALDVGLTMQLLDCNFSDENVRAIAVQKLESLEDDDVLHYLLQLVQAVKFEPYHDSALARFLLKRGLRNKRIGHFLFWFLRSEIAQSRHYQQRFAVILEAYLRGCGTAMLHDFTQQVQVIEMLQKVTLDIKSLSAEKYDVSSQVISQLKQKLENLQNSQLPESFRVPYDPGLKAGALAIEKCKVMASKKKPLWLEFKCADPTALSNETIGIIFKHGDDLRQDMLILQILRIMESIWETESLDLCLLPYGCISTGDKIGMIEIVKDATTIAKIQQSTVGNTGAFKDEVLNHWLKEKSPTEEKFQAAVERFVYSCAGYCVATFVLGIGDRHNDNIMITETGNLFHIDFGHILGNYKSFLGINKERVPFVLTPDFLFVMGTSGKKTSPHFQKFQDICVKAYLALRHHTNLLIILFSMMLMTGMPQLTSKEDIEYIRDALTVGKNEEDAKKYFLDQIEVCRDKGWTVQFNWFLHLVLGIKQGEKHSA
PI3Kα, sequence (P42336 whole entry, species assumed): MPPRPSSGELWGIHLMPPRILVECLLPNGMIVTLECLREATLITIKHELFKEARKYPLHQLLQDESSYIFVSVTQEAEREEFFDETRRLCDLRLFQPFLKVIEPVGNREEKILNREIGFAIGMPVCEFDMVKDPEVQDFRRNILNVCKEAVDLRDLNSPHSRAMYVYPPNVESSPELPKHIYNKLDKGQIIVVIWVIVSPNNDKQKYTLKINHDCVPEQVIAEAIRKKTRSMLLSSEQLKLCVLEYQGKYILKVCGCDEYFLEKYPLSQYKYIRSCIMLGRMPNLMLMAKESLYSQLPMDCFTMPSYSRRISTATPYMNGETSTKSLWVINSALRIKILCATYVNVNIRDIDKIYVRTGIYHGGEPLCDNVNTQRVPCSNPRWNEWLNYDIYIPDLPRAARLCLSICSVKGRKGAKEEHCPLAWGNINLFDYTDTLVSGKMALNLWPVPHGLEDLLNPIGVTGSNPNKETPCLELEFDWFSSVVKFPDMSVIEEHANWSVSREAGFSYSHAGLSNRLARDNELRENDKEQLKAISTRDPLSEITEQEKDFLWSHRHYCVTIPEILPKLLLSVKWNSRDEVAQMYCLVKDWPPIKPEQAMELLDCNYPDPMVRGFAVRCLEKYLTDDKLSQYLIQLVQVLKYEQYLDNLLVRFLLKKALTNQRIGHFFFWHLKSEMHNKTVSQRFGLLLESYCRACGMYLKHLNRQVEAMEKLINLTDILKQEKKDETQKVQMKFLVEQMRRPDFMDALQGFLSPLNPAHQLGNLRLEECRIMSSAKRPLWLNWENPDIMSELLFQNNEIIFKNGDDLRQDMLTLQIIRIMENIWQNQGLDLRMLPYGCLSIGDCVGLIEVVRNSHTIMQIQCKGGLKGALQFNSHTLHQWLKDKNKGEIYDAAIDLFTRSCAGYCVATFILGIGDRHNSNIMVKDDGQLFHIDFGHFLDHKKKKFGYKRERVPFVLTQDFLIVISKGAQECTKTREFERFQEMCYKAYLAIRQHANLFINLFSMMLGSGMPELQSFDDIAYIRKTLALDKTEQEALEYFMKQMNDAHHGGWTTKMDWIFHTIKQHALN
PI3Kα, sequence (P27986 whole entry partner, species assumed): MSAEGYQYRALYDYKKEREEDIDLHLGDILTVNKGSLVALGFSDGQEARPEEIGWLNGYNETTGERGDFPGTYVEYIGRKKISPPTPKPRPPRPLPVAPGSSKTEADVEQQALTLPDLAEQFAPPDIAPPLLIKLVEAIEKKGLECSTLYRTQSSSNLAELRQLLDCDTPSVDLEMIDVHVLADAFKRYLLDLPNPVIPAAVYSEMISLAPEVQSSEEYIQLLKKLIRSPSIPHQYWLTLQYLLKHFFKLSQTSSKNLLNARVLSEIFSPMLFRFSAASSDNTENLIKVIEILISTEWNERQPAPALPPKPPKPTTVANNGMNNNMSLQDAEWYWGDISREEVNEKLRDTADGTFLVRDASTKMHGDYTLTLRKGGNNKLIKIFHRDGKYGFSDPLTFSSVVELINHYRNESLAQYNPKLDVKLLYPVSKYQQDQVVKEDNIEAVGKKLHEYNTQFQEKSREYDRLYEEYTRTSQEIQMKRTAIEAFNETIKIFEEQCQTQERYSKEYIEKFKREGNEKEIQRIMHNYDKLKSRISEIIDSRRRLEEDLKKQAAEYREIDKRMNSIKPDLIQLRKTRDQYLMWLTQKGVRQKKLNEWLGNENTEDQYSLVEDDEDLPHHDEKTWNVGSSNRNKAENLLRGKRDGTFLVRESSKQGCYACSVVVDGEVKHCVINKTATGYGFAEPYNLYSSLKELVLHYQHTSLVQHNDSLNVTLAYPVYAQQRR

Take `O=C(Nc1ccncc1)Nc1ccc(-c2nc(N3CCOCC3)c3ccn(CCNCCc4cnc[nH]4)c3n2)cc1` [Compound 30, 1-{4-[7-(2-{[2-(1H-imidazol-5-yl)ethyl]amino}ethyl)-4-morpholin-4-yl-7H-pyrrolo[2,3-d]pyrimidin-2-yl]phenyl}-3-pyridin-4-ylurea]: the IC50 was found to be 0.014 µM in test [1], 0.245 µM in test [2] and 0.0107 µM in test [3].

On to `CCn1ccc2c(N3CCOCC3)nc(-c3ccc(NC(=O)Nc4ccc(C(=O)O)cc4)cc3)nc21` [Compound 60, 4-({[4-(7-ethyl-4-morpholin-4-yl-7H-pyrrolo[2,3-d]pyrimidin-2-yl)phenyl]carbamoyl}amino)benzoic acid], for which the values for the IC50 in test [1], in test [2] and in test [3] were 0.0145 µM, 0.12 µM and 0.00086 µM, respectively.

`O=C(Nc1ccncc1)Nc1ccc(-c2nc(N3CCOCC3)c3ccn(CCNc4ccc(F)cc4)c3n2)cc1` [Compound 25, 1-[4-(7-{2-[(4-fluorophenyl)amino]ethyl}-4-morpholin-4-yl-7H-pyrrolo[2,3-d]pyrimidin-2-yl)phenyl]-3-pyridin-4-ylurea]: the IC50 was determined as 0.041 µM in test [1], 0.418 µM in test [2] and 0.033 µM in test [3].

Take `CCn1ccc2c(N3CCOCC3)nc(-c3ccc(NC(=O)Nc4ccc(C(=O)N5CCN(C(C)C)CC5)cc4)cc3)nc21` [Compound 91, 1-[4-(7-ethyl-4-morpholin-4-yl-7H-pyrrolo[2,3-d]pyrimidin-2-yl)phenyl]-3-(4-{[4-(1-methylethyl)piperazin-1-yl]carbonyl}phenyl)urea]: the 50% inhibitory concentration (IC50) in test [1] was 0.004 µM; in test [2], 0.05 µM; in test [3] it was 0.00073 µM.

Regarding `CNc1nc2cc(-c3nc(N4CCOCC4)c4ccn(CC(F)(F)F)c4n3)ccc2[nH]1` [Compound 48, N-methyl-5-[4-morpholin-4-yl-7-(2,2,2-trifluoroethyl)-7H-pyrrolo[2,3-d]pyrimidin-2-yl]-1H-benzimidazol-2-amine], the IC50 in test [1] amounted to 1.2 µM; in test [2], 3.66 µM; in test [3] it was 0.34 µM.

As for `O=C(Nc1cccnc1)Nc1nc2cc(-c3nc(N4CCOCC4)c4ccn(CC(F)(F)F)c4n3)ccc2[nH]1` [Compound 46, 1-{5-[4-morpholin-4-yl-7-(2,2,2-trifluoroethyl)-7H-pyrrolo[2,3-d]pyrimidin-2-yl]-1H-benzimidazol-2-yl}-3-pyridin-3-ylurea], the IC50 is 0.014 µM in test [1], 0.104 µM in test [2] and 0.0034 µM in test [3].

As for `Nc1nc2cc(-c3nc(N4CCOCC4)c4ccn(CC(F)(F)F)c4n3)ccc2[nH]1` [Compound 45, 5-[4-morpholin-4-yl-7-(2,2,2-trifluoroethyl)-7H-pyrrolo[2,3-d]pyrimidin-2-yl]-1H-benzimidazol-2-amine], the results for the IC50 in test [1], in test [2] and in test [3] were 0.045 µM, 0.506 µM and 0.0365 µM, respectively.

Turning to `O=C(Nc1ccc(-c2nc(N3CCOCC3)c3cc[nH]c3n2)cc1)Nc1cccnc1` [Compound 5, 1-[4-(4-morpholin-4-yl-7H-pyrrolo[2,3-d]pyrimidin-2-yl)phenyl]-3-pyridin-3-ylurea], the 50% inhibitory concentration (IC50) in test [1] turned out to be 0.015 µM; in test [2], 0.078 µM; in test [3], 0.0017 µM.

For `CCn1ccc2c(N3CCOCC3)nc(-c3ccc(NC(=O)Nc4ccc(C(=O)NCCN5CCCC5)cc4)cc3)nc21` [Compound 76, 4-({[4-(7-ethyl-4-morpholin-4-yl-7H-pyrrolo[2,3-d]pyrimidin-2-yl)phenyl]carbamoyl}amino)-N-(2-pyrrolidin-1-ylethyl)benzamide], the IC50 in test [1] worked out at 0.002 µM; in test [2], 0.038 µM; in test [3] it was 0.00072 µM.

Turning to `CCn1ccc2c(N3CCOCC3)nc(-c3ccc(NC(=O)Nc4ccc(C(=O)N5CCC(N6CCOCC6)CC5)cc4)cc3)nc21` [Compound 77, 1-[4-(7-ethyl-4-morpholin-4-yl-7H-pyrrolo[2,3-d]pyrimidin-2-yl)phenyl]-3-{4-[(4-morpholin-4-ylpiperidin-1-yl)carbonyl]phenyl}urea], the results for the IC50 in test [1], in test [2] and in test [3] were 0.0055 µM, 0.064 µM and 0.00175 µM, respectively.

As for `CCN1CCN(C(=O)c2ccc(NC(=O)Nc3ccc(-c4nc(N5CCOCC5)c5ccn(C(C)C)c5n4)cc3)cc2)CC1` [Compound 92, 1-{4-[(4-ethylpiperazin-1-yl)carbonyl]phenyl}-3-{4-[7-(1-methylethyl)-4-morpholin-4-yl-7H-pyrrolo[2,3-d]pyrimidin-2-yl]phenyl}urea], the figures for the IC50 in test [1], in test [2] and in test [3] were 0.0085 µM, 0.072 µM and 0.00067 µM, respectively.

In the case of `O=C(Nc1ccc(C(=O)NCCN2CCCCC2)cc1)Nc1ccc(-c2nc(N3CCOCC3)c3ccn(CC(F)(F)F)c3n2)cc1` [Compound 56, 4-[({4-[4-morpholin-4-yl-7-(2,2,2-trifluoroethyl)-7H-pyrrolo[2,3-d]pyrimidin-2-yl]phenyl}carbamoyl)amino]-N-(2-piperidin-1-ylethyl)benzamide], the 50% inhibitory concentration (IC50) stood at 0.0026 µM in test [1], 0.04 µM in test [2] and 0.00053 µM in test [3].

Take `CCn1ccc2c(N3CCOCC3)nc(-c3ccc(NC(=O)Nc4ccc(C(=O)N5CCNCC5)cc4)cc3)nc21` [Compound 67, 1-[4-(7-ethyl-4-morpholin-4-yl-7H-pyrrolo[2,3-d]pyrimidin-2-yl)phenyl]-3-[4-(piperazin-1-ylcarbonyl)phenyl]urea]: the figures for the IC50 in test [1], in test [2] and in test [3] were less than 0.0018 µM, 0.008 µM and 0.00099 µM, respectively.

For `CN(C)CCn1ccc2c(N3CCOCC3)nc(-c3ccc(N)cc3)nc21` [Compound 8, 4-{7-[2-(dimethylamino)ethyl]-4-morpholin-4-yl-7H-pyrrolo[2,3-d]pyrimidin-2-yl}aniline], the results for the IC50 in test [1], in test [2] and in test [3] were 2.98 µM, greater than 10 µM and greater than 3.75 µM, respectively.

For the compound `O=C(Nc1ccc(F)cc1)Nc1ccc(-c2nc(N3CCOCC3)c3ccn(CC(F)(F)F)c3n2)cc1` [Compound 38, 1-(4-fluorophenyl)-3-{4-[4-morpholin-4-yl-7-(2,2,2-trifluoroethyl)-7H-pyrrolo[2,3-d]pyrimidin-2-yl]phenyl}urea], the IC50 in test [1] came to 0.082 µM; in test [2] it was 1.53 µM; in test [3], 0.00345 µM.

Consider `c1cc(-c2nc(N3CCOCC3)c3cc[nH]c3n2)c2cn[nH]c2c1` [Compound 3, 2-(1H-indazol-4-yl)-4-morpholin-4-yl-7H-pyrrolo[2,3-d]pyrimidine], for which the concentration for half-maximal inhibition (IC50) in test [1] stood at 0.83 µM; in test [2], 10.8 µM; in test [3] it was 1.2 µM.

On to `CCOC(=O)Nc1nc2cc(-c3nc(N4CCOCC4)c4ccn(CC(F)(F)F)c4n3)ccc2[nH]1` [Compound 49, ethyl {5-[4-morpholin-4-yl-7-(2,2,2-trifluoroethyl)-7H-pyrrolo[2,3-d]pyrimidin-2-yl]-1H-benzimidazol-2-yl}carbamate], for which the values for the IC50 in test [1], in test [2] and in test [3] were 1.84 µM, 0.21 µM and 1.45 µM, respectively.

Consider `COC(=O)c1ccc(NC(=O)Nc2ccc(-c3nc(N4CCOCC4)c4ccn(CC(F)(F)F)c4n3)cc2)cc1` [Compound 50, methyl 4-[({4-[4-morpholin-4-yl-7-(2,2,2-trifluoroethyl)-7H-pyrrolo[2,3-d]pyrimidin-2-yl]phenyl}carbamoyl)amino]benzoate], for which the results for the IC50 in test [1], in test [2] and in test [3] were 8.71 µM, greater than 10 µM and 0.0049 µM, respectively.
